Assay [1] deals with Mamu-E restricted CD8^+ T cells. It is filed as cell-based, rhesus macaques (Macaca mulatta).
A further assay concerns the target HLA-E*01:03 (Homo sapiens, UniProt P13747). Put plainly: Single-chain peptide-β2m-HC construct, HLA-E surface expression in transfected 293T cells. Format: cell-based. The conditions noted are these: peptide encoded in single-chain peptide-β2M-HC construct, 24 h after transfection, flow cytometry, scaled to index position 2 residue, n = 4.

Take RFPAKAPLL [Mtb44*P2-Phe]: in assay [1], the “Magnitude of CD8+ T cell responses to Mtb44 and position 2 variants” value (shortened to “Magnitude of CD8+ T cell responses”) is “responses of similar magnitude”. In addition, at HLA-E*01:03, the “Relative HLA-E surface expression (MFI, 3D12 antibody)” value is “highest relative levels of HLA-E surface expression”.

On to RLPAKAPLL [Mtb44], for which the “Magnitude of CD8+ T cell responses” value in assay [1] is on record as “responses of similar magnitude”.

On to RQPAKAPLL [Mtb44*P2-Gln], for which, in assay [1], the “Magnitude of CD8+ T cell responses” value is “responses of similar magnitude”.

The values above are taken from article PMC6081459, “Pathogen-derived HLA-E bound epitopes reveal broad primary anchor pocket tolerability and conformationally malleable peptide binding” (Nature Communications, 2018).
